Experiment [1] deals with T1, 1,3-fucosyl transferase in extracts from CHO cells transfected with clone 7.2 (Homo sapiens, UniProt P22083).
T1 construct: expressed in transfected cells; host or cells: CHO cells transfected with clone 7.2; Triton X-100 lysate
T1 sequence (P22083 1-405 isoform P22083-2): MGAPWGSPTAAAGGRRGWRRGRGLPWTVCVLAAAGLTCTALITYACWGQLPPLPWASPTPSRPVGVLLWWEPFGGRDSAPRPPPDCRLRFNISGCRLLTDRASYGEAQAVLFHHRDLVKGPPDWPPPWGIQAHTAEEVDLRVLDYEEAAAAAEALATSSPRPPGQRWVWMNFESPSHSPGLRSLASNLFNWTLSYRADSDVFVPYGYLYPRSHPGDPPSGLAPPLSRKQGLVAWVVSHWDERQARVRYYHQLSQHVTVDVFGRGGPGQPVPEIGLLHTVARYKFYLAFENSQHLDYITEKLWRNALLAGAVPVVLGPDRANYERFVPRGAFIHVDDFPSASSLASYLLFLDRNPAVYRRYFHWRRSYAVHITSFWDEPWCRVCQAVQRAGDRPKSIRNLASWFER
The experiment is described as follows: fucosyl transferase enzyme assay: linking 14C-fucose to acceptor molecules. The format is biochemical. The note with it: for Efficiency of Fucosylation: enzyme freshly produced from transfected CHO cells, 1 hour at 37° C; for linking of fucose to acceptor by the induced enzyme: extract of CHO cells transfected with clone 7.2. The method, then: The assays tested the ability of the enzyme to link radioactively labelled fucose to an acceptor molecule. We performed the assays as follows.
We prepared assay samples containing 10 μl enzyme, 8 μl cocktail and 2 μl 10×acceptor. We prepared the enzyme by isolating about 1.5 million CHO cells transfected with clone 7.2 and lysing them by sonication for 15 seconds in 150 μl ice-cold 1% Triton X-100 in water. The cocktail contained 75 μM ^14C-GDP fucose, 100 mM ATP, 500 mM L-fucose, 1 M MnCl2 and 1 M cacodylate at pH 6.2. 10×acceptor contained, variously, 200 mM LacNAc, Lac-N-biose, or lactose, 250 mM phenyl-β-D-galactoside, or 50 mM 2′-fucosyllactose. We incubated the assay samples for 1 hour at 37° C. We stopped the reaction by addition of 20 μl ethanol. We diluted the sample with 560 μl water and centrifuged in an EPPENDORF centrifuge for 5 minutes at high speed.
We had prepared a DOWEX 1×2-400 column (Sigma Chemical Co.) to separate the unconverted ^14C fucose-GDP from the converted. We loaded the matrix into a large column and washed it with 10 volumes of iN NaOH, followed by 5 volumes of water, followed by 10 volumes of 5% concentrated formic acid. Then we repeated this wash cycle. We used this material to create small columns of 0.4 ml. We prepared the small columns for use by washing them with 10 volumes of water.
We loaded 200 μl of the sample onto the small column, collected the eluate, rinsed with 2 ml water and collected it into the eluate. We determined the radioactivity of this eluate by scintillation counting.

The test system of the next experiment is HL-60 cells; RAMOS cells. The experiment is described as follows: cell binding to rsELAM1-coated plates. The format is cell-based, human. Here is the method:
To a 6 cm diameter Petri dish of bacteriologic plastic (e.g., Falcon 110070) we added 2.5 ml of 50 mM Tris buffer, pH 9.5. To this we added 10 μg of pure rsELAM1. We incubated the plate for 60 minutes at room temperature to allow the rsELAM1 to bind to the plate. Then we aspirated the medium and replaced it with PBS containing 10 mg/ml bovine serum albumin. We incubated the plates overnight at 40 in this solution to block remaining protein binding sites on the plates. We warmed the plates to room temperature, washed them with medium containing 10% fetal calf serum, and incubated them with 2 ml of cells (2×10^6 ml^−1) for 20 minutes. We aspirated the medium and washed the plates twice with 3 ml each of medium (RPMI 1640 with 10% serum). Then we examined the plates by microscopy.
A second assay would test the ability of a small molecule to inhibit cell binding to ELAM itself. We have developed such an assay with rsELAM1 which works in 96 well microtiter plates. These plates, made of bacteriologic plastic (e.g. Linbro/Titertek #76-232-050), are incubated with 0.5 μg per well of rsELAM1 in 50 μl of 15 mM sodium carbonate/35 mM sodium bicarbonate, pH 9.2, overnight at 40. The plates are then blocked for one hour at room temperature with PBS containing 10 mg/ml of bovine serum albumin, and then adhesion assays performed as described in Example VIII using, e.g., HL-60 cells, 2×10^6/ml, 50 μl per well. Under these conditions HL-60 cells bind well to rsELAM1, providing a convenient microassay for screening. One would identify inhibitors by their ability to inhibit HL-60 binding to the plate. Alternatively, one could use an ELAM ligand in this assay, using as the probe a cell line that stably expresses an ELAM.

Consider `CC(=O)N[C@@H]1[C@@H](O[C@@H]2O[C@H](CO)[C@H](O)[C@H](O)[C@H]2O)[C@H](O)[C@@H](CO)O[C@@H]1O` [Lac-N-Biose, Lac-N-biose], for which, in experiment [1], the “Efficiency of Fucosylation” value was 76 picomoles/mg Total protein · h and the “linking of fucose to acceptor by the induced enzyme” value (“linking of fucose to acceptor” for short) is recorded as “did not link fucose”.

Consider `CC(=O)N[C@H]1C(O)O[C@H](CO)[C@@H](O[C@@H]2O[C@H](CO)[C@H](O)[C@H](O)[C@H]2O)[C@@H]1O` (some centres unmarked) [LacNAc], for which, in experiment [1], the “Efficiency of Fucosylation” value is recorded as 1110 picomoles/mg Total protein · h and the “linking of fucose to acceptor” value is “linked fucose”.

As for `OC[C@H]1O[C@@H](O[C@H]2[C@H](O)[C@@H](O)C(O)O[C@@H]2CO)[C@H](O)[C@@H](O)[C@H]1O` (some centres unmarked) [Lactose, lactose], in experiment [1], the “Efficiency of Fucosylation” value was 290 picomoles/mg Total protein · h and the “linking of fucose to acceptor” value is recorded as “linked fucose”.

Regarding `OC[C@H]1O[C@@H](Oc2ccccc2)[C@H](O)[C@@H](O)[C@H]1O` [PhβDgal, phenyl-β-D-galactoside], in experiment [1], the “Efficiency of Fucosylation” value is given as “Not detectable” and the “linking of fucose to acceptor” value is on record as “did not link fucose”.

B1: rsELAM1: portion of the extracellular domain of ELAM1 encoded by nucleotides 141 to 1790 of FIG. 1 (protein, UniProt P16581 22-556, looked up)
extracellular domain: WSYNTSTEAMTYDEASAYCQQRYTHLVAIQNKEEIEYLNSILSYSPSYYWIGIRKVNNVWVWVGTQKPLTEEAKNWAPGEPNNRQKDEDCVEIYIKREKDVGMWNDERCSKKKLALCYTAACTNTSCSGHGECVETINNYTCKCDPGFSGLKCEQIVNCTALESPEHGSLVCSHPLGNFSYNSSCSISCDRGYLPSSMETMQCMSSGEWSAPIPACNVVECDAVTNPANGFVECFQNPGSFPWNTTCTFDCEEGFELMGAQSLQCTSSGNWDNEKPTCKAVTCRAVRQPQNGSVRCSHSPAGEFTFKSSCNFTCEEGFMLQGPAQVECTTQGQWTQQIPVCEAFQCTALSNPERGYMNCLPSASGSFRYGSSCEFSCEQGFVLKGSKRLQCGPTGEWDNEKPTCEAVRCDAVHQPPKGLVRCAHSPIGEFTYKSSCAFSCEEGFELHGSTQLECTSQGQWTEEVPSCQVVKCSSLAVPGKINMSCSGEPVFGTVCKFACPEGWTLNGSAARTCGATGHWSGLLPTCEAPTESNIP
modifications: extracellular domain
In the case of B1, the “binding of HL-60 cells to rsELAM1 in 96 well microtiter plates” value with HL-60 cells; RAMOS cells (0.5 μg per well rsELAM1, HL-60 2×10^6/ml, 50 μl per well) is on record as “bind well”. Further, in the experiment with HL-60 cells; RAMOS cells (6 cm Petri dish, 10 μg rsELAM1), the “binding of HL-60 cells to rsELAM1-coated plates” value is “bind to rsELAM1-coated plates” and the “binding of RAMOS cells to rsELAM1-coated plates” value is listed as “do not bind to these plates”.
